For experiment [1], the system named is D3. As to conditions: cited from earlier work.
For experiment [2], the target named is T1, D1 (Homo sapiens, UniProt P49895).
T1 sequence (P49895 1-249): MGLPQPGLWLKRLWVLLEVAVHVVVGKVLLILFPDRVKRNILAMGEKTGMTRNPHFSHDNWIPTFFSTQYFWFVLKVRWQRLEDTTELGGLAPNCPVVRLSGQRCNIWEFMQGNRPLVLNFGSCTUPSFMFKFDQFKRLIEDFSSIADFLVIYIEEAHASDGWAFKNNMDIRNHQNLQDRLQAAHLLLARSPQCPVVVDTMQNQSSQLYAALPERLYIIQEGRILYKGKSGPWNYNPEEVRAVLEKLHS
Kind of experiment: Inhibition of D1-catalyzed rT3 deiodination. It counts as biochemical. The settings on record: D1 much more sensitive to inhibition than D3. An excerpt:
In addition to those specifically disclosed herein, additional D3 inhibitors can be identified by the generation of analogs or derivatives of known inhibitors, which can be used as lead compounds. […] Based upon such differences, lead compounds can be generated that have excellent specificity for specific deiodinases.

In experiment [3] the target is T1, D1. The settings on record: competitive inhibitor; read-out: Ki, D1-catalyzed rT3 deiodination; cited from earlier work.
Experiment [4] deals with T2, D3 (Homo sapiens, UniProt P55073).
T2 sequence (P55073 1-304): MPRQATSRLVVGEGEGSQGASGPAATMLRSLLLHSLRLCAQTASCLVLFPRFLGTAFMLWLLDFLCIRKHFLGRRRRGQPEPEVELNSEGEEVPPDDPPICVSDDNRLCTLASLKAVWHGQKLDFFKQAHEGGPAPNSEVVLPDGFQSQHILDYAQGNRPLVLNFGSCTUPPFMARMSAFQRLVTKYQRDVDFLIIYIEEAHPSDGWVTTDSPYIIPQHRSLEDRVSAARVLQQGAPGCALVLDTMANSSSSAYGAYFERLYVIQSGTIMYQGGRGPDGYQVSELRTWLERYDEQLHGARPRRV
The settings on record: read-out: Ki, D3-catalyzed T3 5 deiodination; competitive inhibitor; cited from earlier work.

The nature of experiment [5]: Wild-type mice made hypothyroid with perchlorate, epididymal fat pad weight. In kind it is in vivo, mouse. As to conditions: 0.04% perchlorate for two months, relative weight of epididymal fat pad, P<0.01. The text has this:
Analysis of relative weights (compared to total body weight) of male epididymal (EPI) and female parametrial white adipose tissue (WAT) indicated a significant reduction in adult D3KO mice (20% reduction in males and 35% in females, P<0.001, see FIG. 1). This reduction was more marked in aged D3KO mice (60%, P<0.001). […] These alterations were not due to the moderate hypothyroidism present in the D3KO mouse, as wild-type mice made hypothyroid with 0.04% perchlorate to a degree similar to that in D3KO mice manifested a 15% increase in EPI WAT weight (P<0.01, FIG. 3). Thus, the decreased adiposity of the D3KO mouse is both unexpected and even more striking in degree.

The source of these data is US8304401B2, “Compositions and methods for decreasing type III deiodinase activity to modulate adiposity and blood glucose levels” (Trustees of Dartmouth College, priority 2008, dated 2012).

For `CCC(Cc1c(I)cc(I)c(N)c1I)C(=O)O` (stereo not drawn) [iopanoic acid], the D3 inhibitory activity result in the experiment with D3 [1] was “effectively inhibit D3 activity”.

Turning to `O=C(O)CI` [iodoacetate], the D3 inhibitory activity result in the experiment with D3 [1] is “exhibits D3 inhibitory activity”.

Regarding `OC[C@@H](O)[C@@H](O)[C@H](O)[C@@H](O)C=S.[Au]` [gold thioglucose], the “difference in Ki between D1 and D3 inhibition” value on D1 [2] was “approximately 1000 fold”. Besides, the Ki (as a rule, a dissociation constant, usually derived from enzyme kinetics or from competition with a known ligand) was 0.006 µM on D1 [3] and 5.2 µM at D3 [4].

Take `[O-][Cl+3]([O-])([O-])O` [perchlorate]: in experiment [5], the “increase in EPI WAT weight” value is reported as 15%.
